Results on 12 molecules are retold here after ChEMBL document CHEMBL1141458, “Prospects for metabotropic glutamate 1 receptor antagonists in the treatment of neuropathic pain” (J Med Chem, 2007).

What all share (assay type): functional
For assay [1], the target named is T1, Metabotropic glutamate receptor 1 (Homo sapiens, UniProt Q13255). The assay is described as follows: Antagonist activity at mGlu1 receptor.
The target of assay [2] is T2, Metabotropic glutamate receptor 2 (Homo sapiens, UniProt Q14416). The experiment in a line: Antagonist activity at mGlu2 receptor.
Assay [3] deals with T1, Metabotropic glutamate receptor 1. The experiment in a line: Antagonist activity at human mGlu1b receptor.
Assay [4] deals with T2, Metabotropic glutamate receptor 2. The assay is described as follows: Agonist activity at mGlu2 receptor.
In assay [5] the test system is Mus musculus. The assay is described as follows: Effect on pain in po dosed mouse in late phase of formalin assay.
The subject of assay [6] is Rattus norvegicus. The assay is described as follows: Effect on pain in ip dosed rat in late phase of formalin assay.
Assay [7] deals with Mus musculus. The experiment in a line: Effect on pain in po dosed mouse in early phase of formalin assay.
Assay [8] addresses T1, Metabotropic glutamate receptor 1. The experiment in a line: Antagonist activity at human mGlu1 receptor.
Assay [9] deals with Rattus norvegicus. The assay is described as follows: Effect on carrageenan model of inflammatory pain in ip dosed rat.
Assay [10] has as its system Rattus norvegicus. The experiment in a line: Effect on CFA-induced hyperalgesia in ip dosed rat.

T1 sequence (Q13255 whole entry): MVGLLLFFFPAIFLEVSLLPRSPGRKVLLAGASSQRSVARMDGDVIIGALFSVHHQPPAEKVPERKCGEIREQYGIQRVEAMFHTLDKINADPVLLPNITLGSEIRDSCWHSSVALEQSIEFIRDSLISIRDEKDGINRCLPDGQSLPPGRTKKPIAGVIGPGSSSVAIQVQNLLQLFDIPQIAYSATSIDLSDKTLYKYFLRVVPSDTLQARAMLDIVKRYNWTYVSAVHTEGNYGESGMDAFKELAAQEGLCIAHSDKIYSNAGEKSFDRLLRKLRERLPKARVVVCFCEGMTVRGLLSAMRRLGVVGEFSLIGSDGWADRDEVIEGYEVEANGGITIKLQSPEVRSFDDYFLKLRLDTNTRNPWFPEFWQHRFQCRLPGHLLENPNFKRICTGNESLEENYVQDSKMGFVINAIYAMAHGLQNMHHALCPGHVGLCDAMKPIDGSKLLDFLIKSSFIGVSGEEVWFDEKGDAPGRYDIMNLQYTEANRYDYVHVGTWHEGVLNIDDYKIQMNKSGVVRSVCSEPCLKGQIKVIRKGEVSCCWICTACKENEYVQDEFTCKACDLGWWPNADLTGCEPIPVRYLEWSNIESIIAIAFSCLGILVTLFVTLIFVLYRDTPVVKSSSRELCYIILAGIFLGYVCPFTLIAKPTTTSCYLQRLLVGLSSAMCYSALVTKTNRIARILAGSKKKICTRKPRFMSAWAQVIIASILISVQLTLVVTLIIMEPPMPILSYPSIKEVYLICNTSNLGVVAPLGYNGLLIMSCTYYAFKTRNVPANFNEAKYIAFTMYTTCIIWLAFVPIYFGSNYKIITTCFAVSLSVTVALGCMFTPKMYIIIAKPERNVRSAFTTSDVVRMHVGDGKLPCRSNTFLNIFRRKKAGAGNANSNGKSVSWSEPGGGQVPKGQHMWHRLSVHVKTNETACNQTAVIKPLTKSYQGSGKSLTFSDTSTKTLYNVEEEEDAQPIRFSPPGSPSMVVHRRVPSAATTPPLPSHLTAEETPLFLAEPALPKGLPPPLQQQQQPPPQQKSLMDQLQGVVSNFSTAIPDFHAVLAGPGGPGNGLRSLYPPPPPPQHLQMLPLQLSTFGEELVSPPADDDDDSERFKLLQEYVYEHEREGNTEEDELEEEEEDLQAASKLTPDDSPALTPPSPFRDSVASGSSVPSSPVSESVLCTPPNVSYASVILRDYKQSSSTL
T2 sequence (Q14416 whole entry): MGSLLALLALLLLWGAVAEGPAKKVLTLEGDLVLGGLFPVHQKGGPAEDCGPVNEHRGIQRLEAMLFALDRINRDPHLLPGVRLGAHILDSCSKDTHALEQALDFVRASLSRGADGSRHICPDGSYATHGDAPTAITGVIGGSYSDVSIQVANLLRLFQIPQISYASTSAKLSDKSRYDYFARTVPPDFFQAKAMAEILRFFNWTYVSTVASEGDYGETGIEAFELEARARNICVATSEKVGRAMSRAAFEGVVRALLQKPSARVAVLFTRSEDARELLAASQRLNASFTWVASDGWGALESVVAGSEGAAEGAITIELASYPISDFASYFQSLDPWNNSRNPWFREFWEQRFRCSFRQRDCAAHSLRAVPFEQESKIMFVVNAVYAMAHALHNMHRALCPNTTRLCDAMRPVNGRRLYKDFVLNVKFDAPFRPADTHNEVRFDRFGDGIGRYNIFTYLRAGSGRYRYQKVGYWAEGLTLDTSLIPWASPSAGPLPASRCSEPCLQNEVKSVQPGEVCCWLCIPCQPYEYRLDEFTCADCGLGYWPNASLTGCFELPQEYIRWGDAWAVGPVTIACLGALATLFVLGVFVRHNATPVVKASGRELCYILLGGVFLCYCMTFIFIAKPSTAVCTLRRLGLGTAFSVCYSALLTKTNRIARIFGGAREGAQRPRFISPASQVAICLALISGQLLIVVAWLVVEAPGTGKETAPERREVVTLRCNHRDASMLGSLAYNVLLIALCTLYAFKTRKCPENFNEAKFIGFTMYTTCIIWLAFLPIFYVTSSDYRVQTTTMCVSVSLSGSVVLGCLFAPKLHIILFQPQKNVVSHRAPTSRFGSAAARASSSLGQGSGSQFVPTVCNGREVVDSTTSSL

For the molecule `C[C@@](N)(C(=O)O)c1ccc(C(=O)O)cc1`, the half-maximal inhibitory concentration (IC50) in assay [1] and in [2] was 4.3 µM each time.
As for `CCOC(=O)C12CC1/C(=N\O)c1ccccc1O2` (configuration not stated), the IC50 in assay [3] came out at 6.6 µM.
Take `N[C@H](C(=O)O)c1ccc(C(=O)O)cc1`: inhibition in [1] was half-maximal at 10 µM (IC50).
As for `COc1ccc(Nc2ncnc3ccc(OC)cc23)cc1`, the IC50 in assay [1] is 0.096 µM.
As for `Cc1c(C2=CCC(C(=O)N(C)C(C)C)CC2)nnn1-c1cccnc1F` (configuration not stated), the half-inhibitory concentration (IC50) in [1] amounted to 0.006 µM.
In [4], `N[C@H](C(=O)O)c1ccc(C(=O)O)c(O)c1` registered a concentration giving a half-maximal response (EC50) of 48 µM.
As to `CCCOC(=O)c1[nH]c(C)c(C(=O)OC(C)C(C)(C)C)c1C` (configuration not stated), the 50% effective dose (ED50) with Mus musculus [5] came to 0.3 mg/kg; with Rattus norvegicus [6], 3 mg/kg; in the assay on Mus musculus [7] it was 0.3 mg/kg.
Consider `C=C1C[C@@H]2COC(=O)[C@]2(Cc2ccc3ccccc3c2)C1`, for which the IC50 in assay [1] was 0.16 µM.
The molecule `CO[C@H]1CC[C@@H](C(=O)c2ccc3nc4c(cc3c2)CCCO4)CC1` gave an IC50 in [8] of 0.00121 µM.
Regarding `CCc1ccc(-n2cnc3c(sc4nccc(N(C)C)c43)c2=O)cc1`, the ED50 with Rattus norvegicus [6] was determined as 15 µmol/kg; in the assay with Rattus norvegicus [9], 11 µmol/kg; in the assay on Rattus norvegicus [10], 15 µmol/kg.
The molecule `N[C@H](C(=O)O)c1ccc(O)c(C(=O)O)c1` returned a half-inhibitory concentration (IC50) in assay [1] of 40 µM.
With `NC(CC1c2ccccc2Sc2ccccc21)(C(=O)O)C1CC(C(=O)O)C1` (configuration not stated), the 50% inhibitory concentration (IC50) in assay [1] came out at 1 µM. Compared with the last molecule, the IC50 is about 40-fold lower.

What is called IC50 is the point on the concentration scale where inhibition reaches its midpoint. A higher IC50 goes with weaker potency. What is called EC50 is the concentration at which the effect is half-maximal. Higher therefore signals a less potent agent. In general, ED50 refers to the midpoint of the dose-response relation. A high value points to weaker potency.
